“Also recorded” adds a separate entry of the source.
Each compound was assayed against CRBN (Homo sapiens (Human), UniProt Q96SW2) (assay: Cellular CRBN dBET6 displacement assay (BRD4BD2-GFP/mCherry reporter cells)). Details: Flip-In 293 cells stably expressing BRD4BD2-GFP, 100 nM dBET6, 5 hours.
Type: cell-based
Description: BRD4BD2 were subcloned into mammalian pcDNA5/FRT Vector (Ampicillin and Hygromycin B resistant) modified to contain MCS-eGFP-P2A-mCherry. […] Following a 2-3 passage cycle, FACS (FACSAria™ II, BD) was used to enrich for cells expressing eGFP and mCherry.
Signal from minimal 3000 events per well was acquired and the eGFP and mCherry florescence monitored. Data was analyzed using FlowJo® (FlowJo®, LCC). […] The eGFP protein abundance relative to mCherry was then quantified as a ten-fold amplified ratio for each individual cell using the formula: 10×eGFP/mCherry. The median of the ratio was then calculated per set, normalized to the median of the DMSO ratio.
This assay provided a readout of cellular CRBN binding impacted by the permeability of the molecule tested.

CRBN, sequence (Q96SW2 whole entry): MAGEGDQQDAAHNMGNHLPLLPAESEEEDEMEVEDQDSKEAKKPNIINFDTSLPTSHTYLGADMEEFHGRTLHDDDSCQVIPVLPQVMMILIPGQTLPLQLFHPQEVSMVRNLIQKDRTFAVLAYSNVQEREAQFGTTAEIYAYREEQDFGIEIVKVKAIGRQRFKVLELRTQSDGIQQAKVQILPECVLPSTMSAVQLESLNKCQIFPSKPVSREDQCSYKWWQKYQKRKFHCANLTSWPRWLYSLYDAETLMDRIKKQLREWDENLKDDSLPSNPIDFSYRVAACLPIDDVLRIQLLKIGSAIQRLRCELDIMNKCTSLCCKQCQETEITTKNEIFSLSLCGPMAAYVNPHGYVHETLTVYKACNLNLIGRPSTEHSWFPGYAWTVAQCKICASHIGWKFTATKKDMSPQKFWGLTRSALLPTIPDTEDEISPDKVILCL

Cellular CRBN-BRD4 dBET6 displacement EC50 | SMILES
inactive; also recorded: Not binding | O=C1CCC(N2Cc3c(Nc4ccnc(NCCCN5CCCC5=O)n4)cccc3C2=O)C(=O)N1 (centres unmarked) [Compound 22, 3-(1-oxo-4-((2-((3-(2-oxopyrrolidin-1-yl)propyl)amino)pyrimidin-4-yl)amino)isoindolin-2-yl)piperidine-2,6-dione]
inactive; also recorded: Not binding | COc1cc(F)ccc1-c1nccc(NCC(=O)Nc2cccc3c2CN(C2CCC(=O)NC2=O)C3=O)n1 (centres unmarked) [Compound 34, N-(2-(2,6-dioxopiperidin-3-yl)-1-oxoisoindolin-4-yl)-2-((2-(4-fluoro-2-methoxyphenyl)pyrimidin-4-yl)amino)acetamide]
inactive; also recorded: Not binding | NS(=O)(=O)c1ccc(Nc2nccc(Nc3cccc4c3CN(C3CCC(=O)NC3=O)C4=O)n2)cc1 (centres unmarked) [Compound 40, 4-((4-((2-(2,6-dioxopiperidin-3-yl)-1-oxoisoindolin-4-yl)amino)pyrimidin-2-yl)amino)benzenesulfonamide]

Same assay, conditions: Flip-In 293 cells stably expressing BRD4BD2-GFP, 100 nM dBET6, 5 hours; read-out: Cellular CRBN-BRD4 dBET6 displacement EC50

SMILES | EC50
COc1ccc(Nc2nccc(Nc3cccc4c3CN(C3CCC(=O)NC3=O)C4=O)n2)cc1 (centres unmarked) [Compound 18, 3-(4-((2-((4-methoxyphenyl)amino)pyrimidin-4-yl)amino)-1-oxoisoindolin-2-yl)piperidine-2,6-dione] | 2.69 µM
O=C1CCC(N2Cc3c(Nc4ccnc(Nc5ccc6c(c5)OCCO6)n4)cccc3C2=O)C(=O)N1 (centres unmarked) [Compound 19, 3-(4-((2-((2,3-dihydrobenzo[b][1,4]dioxin-6-yl)amino)pyrimidin-4-yl)amino)-1-oxoisoindolin-2-yl)piperidine-2,6-dione] | 3.63 µM
O=C1CCC(N2Cc3c(Nc4ccnc(Nc5ccccc5F)n4)cccc3C2=O)C(=O)N1 (centres unmarked) [Compound 21, 3-(4-((2-((2-fluorophenyl)amino)pyrimidin-4-yl)amino)-1-oxoisoindolin-2-yl)piperidine-2,6-dione] | 2.31 µM
O=C1CCC(N2Cc3c(Nc4ccnc(Nc5ccc6c(c5)CCC6)n4)cccc3C2=O)C(=O)N1 (centres unmarked) [Compound 24, 3-(4-((2-((2,3-dihydro-1H-inden-5-yl)amino)pyrimidin-4-yl)amino)-1-oxoisoindolin-2-yl)piperidine-2,6-dione] | 1.35 µM
Cc1cc(C)c(Nc2nccc(Nc3cccc4c3CN(C3CCC(=O)NC3=O)C4=O)n2)c(C)c1 (centres unmarked) [Compound 28, 3-(4-((2-(mesitylamino)pyrimidin-4-yl)amino)-1-oxoisoindolin-2-yl)piperidine-2,6-dione] | 3.25 µM
O=C1CCC(N2Cc3c(Nc4ccnc(N5CCC[C@H]5CO)n4)cccc3C2=O)C(=O)N1 (stereo partly drawn) [Compound 29, 3-(4-((2-((S)-2-(hydroxymethyl)pyrrolidin-1-yl)pyrimidin-4-yl)amino)-1-oxoisoindolin-2-yl)piperidine-2,6-dione] | 8.14 µM
O=C1CCC(N2Cc3c(Nc4ccnc(N5CCC[C@@H]5CO)n4)cccc3C2=O)C(=O)N1 (stereo partly drawn) [Compound 30, 3-(4-((2-((R)-2-(hydroxymethyl)pyrrolidin-1-yl)pyrimidin-4-yl)amino)-1-oxoisoindolin-2-yl)piperidine-2,6-dione] | 8.15 µM
COc1cccc(-c2nccc(Nc3cccc4c3CN(C3CCC(=O)NC3=O)C4=O)n2)c1 (centres unmarked) [Compound 32, 3-(4-((2-(3-methoxyphenyl)pyrimidin-4-yl)amino)-1-oxoisoindolin-2-yl)piperidine-2,6-dione] | 4.16 µM
COc1cc(F)ccc1-c1nccc(Nc2cccc3c2CN(C2CCC(=O)NC2=O)C3=O)n1 (centres unmarked) [Compound 33, 3-(4-((2-(4-fluoro-2-methoxyphenyl)pyrimidin-4-yl)amino)-1-oxoisoindolin-2-yl)piperidine-2,6-dione] | 2.59 µM
COc1ccc(-c2nccc(Nc3cccc4c3CN(C3CCC(=O)NC3=O)C4=O)n2)c(OC)c1 (centres unmarked) [Compound 35, 3-(4-((2-(2,4-dimethoxyphenyl)pyrimidin-4-yl)amino)-1-oxoisoindolin-2-yl)piperidine-2,6-dione] | 1.86 µM
CC(C)C(CO)Nc1nccc(Nc2cccc3c2CN(C2CCC(=O)NC2=O)C3=O)n1 [Compound 37, 3-(4-((2-(((R)-1-hydroxy-3-methylbutan-2-yl)amino)pyrimidin-4-yl)amino)-1-oxoisoindolin-2-yl)piperidine-2,6-dione] | 9.74 µM
COc1ccccc1Nc1nccc(Nc2cccc3c2CN(C2CCC(=O)NC2=O)C3=O)n1 (centres unmarked) [Compound 38, 3-(4-((2-((2-methoxyphenyl)amino)pyrimidin-4-yl)amino)-1-oxoisoindolin-2-yl)piperidine-2,6-dione] | 2.6 µM
O=C1CCC(N2Cc3c(Nc4ccnc(Nc5ccc6c(c5)CCN6)n4)cccc3C2=O)C(=O)N1 (centres unmarked) [Compound 43, 3-(4-((2-(indolin-5-ylamino)pyrimidin-4-yl)amino)-1-oxoisoindolin-2-yl)piperidine-2,6-dione] | 25.3 µM
O=C1CCC(N2Cc3c(Nc4ccnc(NC56CC7CC(CC(C7)C5)C6)n4)cccc3C2=O)C(=O)N1 (centres unmarked) [Compound 44, 3-(4-((2-(((3s,5s,7s)-adamantan-1-yl)amino)pyrimidin-4-yl)amino)-1-oxoisoindolin-2-yl)piperidine-2,6-dione] | 0.913 µM
O=C1CCC(N2Cc3c(Nc4ccnc(Nc5ccc6c(c5)-c5ccccc5C6)n4)cccc3C2=O)C(=O)N1 (centres unmarked) [Compound 46, 3-(4-((2-((9H-fluoren-3-yl)amino)pyrimidin-4-yl)amino)-1-oxoisoindolin-2-yl)piperidine-2,6-dione] | 1.13 µM

The next lines start with the values.

EC50 | SMILES
1.26 µM | CC(=O)c1ccc(-c2nccc(Nc3cccc4c3CN(C3CCC(=O)NC3=O)C4=O)n2)cc1 (centres unmarked) [Compound 20, 3-(4-((2-(4-acetylphenyl)pyrimidin-4-yl)amino)-1-oxoisoindolin-2-yl)piperidine-2,6-dione]
1.25 µM | CN(c1ccccc1)c1nccc(Nc2cccc3c2CN(C2CCC(=O)NC2=O)C3=O)n1 (centres unmarked) [Compound 27, 3-(4-((2-(methyl(phenyl)amino)pyrimidin-4-yl)amino)-1-oxoisoindolin-2-yl)piperidine-2,6-dione]
8.66 µM | O=C1CCC(N2Cc3c(Nc4ccnc(-c5ccc(-c6ccccc6)cc5)n4)cccc3C2=O)C(=O)N1 (centres unmarked) [Compound 31, 3-(4-((2-([1,1′-biphenyl]-4-yl)pyrimidin-4-yl)amino)-1-oxoisoindolin-2-yl)piperidine-2,6-dione]
2.24 µM | O=C1CCC(N2Cc3c(Nc4ccnc(-c5cc6ccccc6o5)n4)cccc3C2=O)C(=O)N1 (centres unmarked) [Compound 36, 3-(4-((2-(benzofuran-2-yl)pyrimidin-4-yl)amino)-1-oxoisoindolin-2-yl)piperidine-2,6-dione]
2.06 µM | O=C1CCC(N2Cc3c(Nc4ccnc(Nc5ccc6ccccc6c5)n4)cccc3C2=O)C(=O)N1 (centres unmarked) [Compound 45, 3-(4-((2-(naphthalen-2-ylamino)pyrimidin-4-yl)amino)-1-oxoisoindolin-2-yl)piperidine-2,6-dione]
27.1 µM | COc1ccccc1-c1nc(Nc2cccc3c2CN(C2CCC(=O)NC2=O)C3=O)c2nc[nH]c2n1 (centres unmarked) [Compound 47, 3-(4-((2-(2-methoxyphenyl)-9H-purin-6-yl)amino)-1-oxoisoindolin-2-yl)piperidine-2,6-dione]
12.4 µM | O=C1CCC(N2Cc3c(Nc4nc(-c5ccc(-c6ccccc6)cc5)nc5[nH]cnc45)cccc3C2=O)C(=O)N1 (centres unmarked) [Compound 48, 3-(4-((2-([1,1′-biphenyl]-4-yl)-9H-purin-6-yl)amino)-1-oxoisoindolin-2-yl)piperidine-2,6-dione]
12.4 µM | COc1cc(F)ccc1-c1nc(Nc2cccc3c2CN(C2CCC(=O)NC2=O)C3=O)c2nc[nH]c2n1 (centres unmarked) [Compound 49, 3-(4-((2-(4-fluoro-2-methoxyphenyl)-9H-purin-6-yl)amino)-1-oxoisoindolin-2-yl)piperidine-2,6-dione]
8.29 µM | O=C1CCC(N2Cc3c(Nc4nc(-c5ccc(F)cc5)nc5[nH]cnc45)cccc3C2=O)C(=O)N1 (centres unmarked) [Compound 50, 3-(4-((2-(4-fluorophenyl)-9H-purin-6-yl)amino)-1-oxoisoindolin-2-yl)piperidine-2,6-dione]
6.83 µM | COc1cc(OC)cc(-c2nc(Nc3cccc4c3CN(C3CCC(=O)NC3=O)C4=O)c3nc[nH]c3n2)c1 (centres unmarked) [Compound 51, 3-(4-((2-(3,5-dimethoxyphenyl)-9H-purin-6-yl)amino)-1-oxoisoindolin-2-yl)piperidine-2,6-dione]

Same assay, conditions: unit printed as 'M' in the text (Table 1 gives μM); 100 nM dBET6, 5 hours; read-out: Cellular CRBN engagement EC50

EC50 | SMILES
0.66 µM | O=C1CCC(N2Cc3c(Nc4ccnc(N5CCN(c6cccc(C(F)(F)F)c6)CC5)n4)cccc3C2=O)C(=O)N1 (centres unmarked) [Compound 23, 3-(1-oxo-4-((2-(4-(3-(trifluoromethyl)phenyl)piperazin-1-yl)pyrimidin-4-yl)amino)isoindolin-2-yl)piperidine-2,6-dione]
0.67 µM | CCN(Cc1ccccc1)c1nccc(Nc2cccc3c2CN(C2CCC(=O)NC2=O)C3=O)n1 (centres unmarked) [Compound 26, 3-(4-((2-(benzyl(ethyl)amino)pyrimidin-4-yl)amino)-1-oxoisoindolin-2-yl)piperidine-2,6-dione]
0.742 µM | O=C1CCC(N2Cc3c(Nc4ccnc(-c5ccc(F)cc5)n4)cccc3C2=O)C(=O)N1 (centres unmarked) [Compound 39, 3-(4-((2-(4-fluorophenyl)pyrimidin-4-yl)amino)-1-oxoisoindolin-2-yl)piperidine-2,6-dione]
0.46 µM | O=C1CCC(N2Cc3c(Nc4ccnc(Nc5ccc6c(c5)CCCC6)n4)cccc3C2=O)C(=O)N1 (centres unmarked) [Compound 52, 3-(1-oxo-4-((2-((5,6,7,8-tetrahydronaphthalen-2-yl)amino)pyrimidin-4-yl)amino)isoindolin-2-yl)piperidine-2,6-dione]

From patent US11530219B2, “Ligands to cereblon (CRBN)” (DANA-FARBER CANCER INSTITUTE, INC., priority 2018, dated 2022)
